Assay results taken from patent US20100249231A1, “HSP90 Inhibitors of Protein-Protein Interaction HSP90 Chaperone Complexes and Therapeutic Uses Thereof” (THE OHIO STATE UNIVERSITY RESEARCH FOUNDATION, priority 2007, published 2010).
Peptide text beside a SMILES is read from it. * marks the point of attachment. Cbz = O=C(OCc1ccccc1)*

What was measured:
Akt = assay: Western blot of Hsp90 client protein Akt in Panc-1 cells; format: cell-based, human; conditions: for level of Akt protein: 10 μM proteasome inhibitor, 24 h
Description: (§1) The levels of Akt and Cdk4, two well-known Hsp90 clients, were measured. Celastrol decreased the protein levels of Akt and Cdk4 in a concentration- and time-dependent manner.
(§2) Western Blot. The general procedure for the Western blot analysis was briefly described as follows. After drug treatment, cells were washed twice with ice-cold phosphate-buffered saline (PBS), scraped into lysis buffer (20 mM Tris, pH 7.5, 1% Nonidet P-40, 150 mM NaCl, 5 mM EDTA, 1 mM Na3VO4) supplemented with a protease inhibitor mixture (Sigma, added at a 1:100 dilution), and incubated on ice for 20 min. The lysate was then centrifuged at 14,000×g for 10 min. Equal amounts of total protein were subjected to SDS-PAGE and transferred onto nitrocellulose membranes and probed with appropriate antibodies.

Cdk4 = assay: Western blot of Hsp90 client protein Cdk4 in Panc-1 cells; format: cell-based, human; conditions: for level of Cdk4 protein: 10 μM proteasome inhibitor, 24 h
Description: as §1, §2

Hsp90 = assay: Western blot of Hsp90 protein levels; format: cell-based, human
Description: as §2

[1] = system: RIP1-Tag2 transgenic pancreatic cancer mouse model; assay: RIP1-Tag2 transgenic pancreatic cancer mouse model; format: in vivo, mice
Description: To further evaluate the anticancer efficacy of celastrol against pancreatic cancer, the inventors utilized celastrol to inhibit tumor growth in a RIP1-Tag2 transgenic pancreatic cancer mouse model. In this mouse model, hyperplastic islets begin to appear by 3-4 weeks of age, and solid tumors emerge in pancreas at about 8-9 weeks. The cancer will metastasized into other sites such as mesenterium in the peritoneal cavity from 10-12 weeks.
RIP1-Tag2 Transgenic Mouse Model. RIP1-Tag2 transgenic mice used contained the insulin promoter-driven SV40 T-antigen and produced spontaneous multifold and multistage pancreatic islet tumors. RIP1-Tag2 positive mice were identified by PCR analysis of genomic DNA from tail biopsy. […] After 4 weeks of injection, mice of each group were sacrificed by CO2 and tumors were isolated and saved. The remaining mice were kept to calculate the survival rate.

Panc-1 xenograft tumor = assay: Panc-1 xenograft mouse model; format: in vivo, mice; conditions: 3 mg/kg i.p.; for inhibition of tumor growth: after the last injection
Description: After the last injection, celastrol inhibited 80% of tumor growth (p<0.001) (FIG. 6A).
Xenograft Mouse Model. 4 to 6-week old nu/nu athymic female mice were obtained from Charles River Laboratories (Charles River, Wilmington, Mass.). The human Panc-1 cells (5-10×10^6) were mixed with reconstituted basement membrane (Collaborative Research, Bedford, Mass.) and implanted to the right and left flanks of the mice. Tumor volumes were calculated with the formula: width^2×length/2. When tumors reached 100 mm^3, animals were randomized into different groups for treatment (n=6/group).
Then, the dosing schedule was changed to one injection per three days. Tumor sizes and body weights were measured twice a week.

Panc-1 cells = assay: MTS assay; conditions: read-out: IC50 (cytotoxicity, MTS), 24 h
Description: MTS Assay. The human Panc-1 cells were seeded in 96-well plates at a density of 3000-5000 cells per well. […] Number of viable cells was assessed by MTS assay after 24 h. The IC50 values for cytotoxicity were calculated with WinNonlin software (Pharsight, Mountain View, Calif.).

[2] = 3 mg/kg i.p. once every 3 days for four weeks, at 12th week

Row | SMILES | level of Akt protein (Akt) | level of Cdk4 protein (Cdk4) | survival increase over control ([1]; 3 mg/kg i.p.) [days] | decrease of tumors in pancreas compared to the control group [1, 2] [%] | IC50 (Panc-1 cells) [µM] | other results
1 | CC(C)C[C@@H](C=O)NC(=O)[C@H](CC(C)C)NC(=O)[C@H](CC(C)C)NC(=O)OCc1ccccc1 [MG132] (Cbz-Leu-Leu-Leu-aldehyde) | did not change the levels | did not change the levels | – | – | – | –
2 | CC1=C(O)C(=O)C=C2C1=CC=C1[C@@]2(C)CC[C@@]2(C)[C@@H]3C[C@](C)(C(=O)O)CC[C@]3(C)CC[C@]12C [celastrol, (9b,13a,14b,20a)-3-Hydroxy-9,13-dimethyl-2-oxo-24,25,26-trinoroleana-1(10),3,5,7-tertraen-29-oic acid] | – | – | 12 | 30 | 3 | effect on Hsp90 protein levels (Hsp90): no effect; median survival time ([1]; 3 mg/kg i.p.): 96 days; weight loss ([1]; 3 mg/kg i.p., RIP1-Tag2 mice): about 10%; decrease of Akt protein level (Akt; 5 μM, 24-h treatment): 80%; inhibition of tumor growth (Panc-1 xenograft tumor): 80%; inhibition of tumor growth (Panc-1 xenograft tumor; listed as Celastrol): more than 80%; weight loss in mice (Panc-1 xenograft tumor; xenograft mice): 5%; decrease of Cdk4 protein level (Cdk4; 5 μM, 24-h treatment): 70%
3 | COC1=C2C[C@@H](C)C[C@H](OC)[C@H](O)[C@@H](C)/C=C(\C)[C@H](OC(N)=O)[C@@H](OC)/C=C\C=C(/C)C(=O)NC(=CC1=O)C2=O [geldanamycin, reference compound] | – | – | 6 | 13 | 8 | decrease of metastatic tumors in mesenterium compared to the control group [1, 2]: 50%
4 | CC(=O)N[C@@H](CSC(=O)[C@]1([C@@H](O)C(C)C)NC(=O)[C@H](C)[C@@H]1O)C(=O)O [lactacystin] | did not change the levels | did not change the levels | – | – | – | –
